Each compound was assayed against T1, IDO1 (Homo sapiens, UniProt P14902) (assay: Cell-based (HeLa) assay for measurement of IDO1 inhibition (kynurenine levels in supernatant after IFNγ induction)). Details: HeLa cells, IFNγ-induced IDO1, kynurenine in supernatant after 48 hour incubation; geometric mean of a minimum of four determinations.
T1 construct: HeLa cells were treated with a test compound in the presence of IFNγ, which induces IDO1 expression; host or cells: H1-HeLa cells, IDO1 induced with IFNγ
Outline: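 IDO1 activity is read as kynurenine released into the medium, detected with Ehrlich's reagent (p-dimethylaminobenzaldehyde) at 480 nm after TCA treatment. HeLa cells were exposed 48 h to compounds in 0.5% DMSO alongside IFNγ induction. Values normalized to no-IFNγ and IFNγ controls; four-parameter EC50 given as geometric mean of ≥4 determinations.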

T1 sequence (P14902 whole entry): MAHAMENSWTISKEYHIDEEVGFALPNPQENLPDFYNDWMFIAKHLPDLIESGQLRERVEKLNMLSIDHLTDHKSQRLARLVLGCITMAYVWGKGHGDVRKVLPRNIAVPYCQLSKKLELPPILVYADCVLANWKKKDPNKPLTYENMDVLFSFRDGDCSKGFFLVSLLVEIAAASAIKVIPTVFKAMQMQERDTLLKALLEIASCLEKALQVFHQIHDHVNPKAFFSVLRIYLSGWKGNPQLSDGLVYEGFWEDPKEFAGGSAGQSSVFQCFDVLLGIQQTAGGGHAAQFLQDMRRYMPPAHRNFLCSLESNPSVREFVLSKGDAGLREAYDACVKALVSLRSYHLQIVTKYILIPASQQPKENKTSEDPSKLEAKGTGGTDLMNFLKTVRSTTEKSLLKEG

| EC50 [nM] | Compound |
| --- | --- |
| 1330 | CC(C)CNCc1nc2nccc(/C(=N/O)Nc3ccc(F)c(Cl)c3)c2[nH]1 [Example 196, N-(3-Chloro-4-fluorophenyl)-N′-hydroxy-2-((isobutylamino)methyl)-1H-imidazo[4,5-b]pyridine-7-carboximidamide] |
| 1460 | O/N=C(\Nc1cccc(Cl)c1)c1cc(F)c(F)c2nc(CNCC3CC3)[nH]c12 [Example 25, N-(3-Chlorophenyl)-2-(((cyclopropylmethyl)amino)methyl)-4,5-difluoro-N′-hydroxy-1H-benzo[d]imidazole-7-carboximidamide] |
| 1930 | O/N=C(\Nc1ccc(F)c(Cl)c1)c1ccnc2nc(-c3cccnc3)[nH]c12 [Example 147, N-(3-Chloro-4-fluorophenyl)-N′-hydroxy-2-(pyridin-3-yl)-1H-imidazo[4,5-b]pyridine-7-carboximidamide] |
| 1540 | OCc1nc2c(F)c(F)cc(/C(=N/O)Nc3cccc(Cl)c3)c2[nH]1 [Example 29, N-(3-Chlorophenyl)-4,5-difluoro-N′-hydroxy-2-(hydroxymethyl)-1H-benzo[d]imidazole-7-carboximidamide] |
| 4220 | O/N=C(\Nc1ccc(F)c(Cl)c1)c1ccnc2nc(-c3cccs3)[nH]c12 [Example 146, N-(3-Chloro-4-fluorophenyl)-N′-hydroxy-2-(thiophen-2-yl)-1H-imidazo[4,5-b]pyridine-7-carboximidamide] |
| 2380 | CN(CCNc1nc2nccc(/C(=N/O)Nc3ccc(F)c(Cl)c3)c2[nH]1)CC(F)F [Example 220, N-(3-chloro-4-fluorophenyl)-2-((2-((2,2-difluoroethyl)(methyl)amino)ethyl)amino)-N′-hydroxy-1H-imidazo[4,5-b]pyridine-7-carboximidamide] |
| 1160 | O/N=C(\Nc1ccc(F)c(Cl)c1)c1ccnc2nc(NCCN3CCOCC3)[nH]c12 [Example 168, N-(3-Chloro-4-fluorophenyl)-N′-hydroxy-2-((2-morpholinoethyl)amino)-1H-imidazo[4,5-b]pyridine-7-carboximidamide] |
| 8230 | O/N=C(\Nc1ccc(F)c(Cl)c1)c1ccnc2nc(CNCc3nccs3)[nH]c12 [Example 144, N-(3-Chloro-4-fluorophenyl)-N′-hydroxy-2-(((thiazol-2-ylmethyl)amino)methyl)-1H-imidazo[4,5-b]pyridine-7-carboximidamide] |
| 1370 | NC1(CNc2nc3nccc(/C(=N/O)Nc4ccc(F)c(Cl)c4)c3[nH]2)CC1 [Example 241, 2-(((1-aminocyclopropyl)methyl)amino)-N-(3-chloro-4-fluorophenyl)-N′-hydroxy-1H-imidazo[4,5-b]pyridine-7-carboximidamide] |
| 1220 | Cc1ccc(/C(=N/O)Nc2ccc(F)c(Cl)c2)c2[nH]cnc12 [Example 1, N-(3-Chloro-4-fluorophenyl)-N′-hydroxy-4-methyl-1H-benzo[d]imidazole-7-carboximidamide] |
| 1930 | O/N=C(\Nc1ccc2ccccc2c1)c1ccnc2nc[nH]c12 [Example 102, N′-hydroxy-N-(naphthalen-2-yl)-1H-imidazo[4,5-b]pyridine-7-carboximidamide] |
| 1110 | CNCc1nc2c(F)c(F)cc(/C(=N/O)Nc3cccc(Cl)c3)c2[nH]1 [Example 30, N-(3-Chlorophenyl)-4,5-difluoro-N′-hydroxy-2-((methylamino)methyl)-1H-benzo[d]imidazole-7-carboximidamide] |
| 607 | CNc1nc2c(F)c(F)cc(/C(=N/O)Nc3ccc(F)c(Cl)c3)c2[nH]1 [Example 38, N-(3-Chloro-4-fluorophenyl)-4,5-difluoro-N′-hydroxy-2-(methylamino)-1H-benzo[d]imidazole-7-carboximidamide] |
| 698 | COCCCNc1nc2nccc(/C(=N/O)Nc3ccc(F)c(Cl)c3)c2[nH]1 [Example 234, N-(3-chloro-4-fluorophenyl)-N′-hydroxy-2-((3-methoxypropyl)amino)-1H-imidazo[4,5-b]pyridine-7-carboximidamide] |
| 4000 | OCc1nc2c(/C(=N/O)Nc3ccc(F)c(C(F)(F)F)c3)ccnc2[nH]1 [Example 171, N-(4-Fluoro-3-(trifluoromethyl)phenyl)-N′-hydroxy-2-(hydroxymethyl)-3H-imidazo[4,5-b]pyridine-7-carboximidamide] |
| 453 | CC(C)OC(=O)Nc1nc2nccc(/C(=N/O)Nc3ccc(F)c(Cl)c3)c2[nH]1 [Example 159, Isopropyl (7-(N-(3-chloro-4-fluorophenyl)-N′-hydroxycarbamimidoyl)-1H-imidazo[4,5-b]pyridin-2-yl)carbamate] |
| 207 | O/N=C(\Nc1cc(Br)ccc1F)c1ccnc2nc[nH]c12 [Example 71, N-(5-Bromo-2-fluorophenyl)-N′-hydroxy-1H-imidazo[4,5-b]pyridine-7-carboximidamide] |
| 2150 | O/N=C(\Nc1ccc(F)c(Cl)c1)c1ccnc2nc(Nc3ccccc3)[nH]c12 [Example 155, N-(3-Chloro-4-fluorophenyl)-N′-hydroxy-2-(phenylamino)-1H-imidazo[4,5-b]pyridine-7-carboximidamide] |
| 1510 | COCCNCCc1nc2nccc(/C(=N/O)Nc3ccc(F)c(Cl)c3)c2[nH]1 [Example 190, N-(3-Chloro-4-fluorophenyl)-N′-hydroxy-2-(2-((2-methoxyethyl)amino)ethyl)-1H-imidazo[4,5-b]pyridine-7-carboximidamide] |
| 602 | O/N=C(\Nc1cccc(Cl)c1)c1ccnc2nc(CCN3CCCCC3)[nH]c12 [Example 271, N-(3-chlorophenyl)-N′-hydroxy-2-(2-(piperidin-1-yl)ethyl)-1H-imidazo[4,5-b]pyridine-7-carboximidamide] |
| > 10000 | NC(=O)CCNc1nc2c(F)c(F)cc(/C(=N/O)Nc3ccc(F)c(Cl)c3)c2[nH]1 [Example 229] |
| > 10000 | O/N=C(\Nc1ccc(F)c(Cl)c1)c1ccnc2nc(NC3COC3)[nH]c12 [Example 226, N-(3-chloro-4-fluorophenyl)-N′-hydroxy-2-(oxetan-3-ylamino)-1H-imidazo[4,5-b]pyridine-7-carboximidamide] |

Same assay, conditions: HeLa cells, IFNγ-induced IDO1, kynurenine in supernatant, 48 hour incubation; geometric mean of a minimum of four determinations

| EC50 [nM] | Compound |
| --- | --- |
| 2350 | O/N=C(\Nc1ccc(F)c(Cl)c1)c1cc(F)c(F)c2nc(NC3CCNC3)[nH]c12 (stereo not shown) [Example 464, N-(3-chloro-4-fluorophenyl)-4,5-difluoro-N′-hydroxy-2-(pyrrolidin-3-ylamino)-1H-benzo[d]imidazole-7-carboximidamide] |
| 1390 | O/N=C(\Nc1ccc(F)c(Cl)c1)c1cc(F)cc2nc(NCCN3CCCC3)[nH]c12 [Example 380, N-(3-chloro-4-fluorophenyl)-5-fluoro-N′-hydroxy-2-((2-(pyrrolidin-1-yl)ethyl)amino)-1H-benzo[d]imidazole-7-carboximidamide] |
| 3060 | Cn1ccnc1CCNc1nc2c(F)c(F)cc(/C(=N/O)Nc3ccc(F)c(Cl)c3)c2[nH]1 [Example 344] |
| 1780 | N#CCCNc1nc2c(F)c(F)cc(/C(=N/O)Nc3ccc(F)c(Cl)c3)c2[nH]1 [Example 340, N-(3-chloro-4-fluorophenyl)-2-((2-cyanoethyl)amino)-4,5-difluoro-N′-hydroxy-1H-benzo[d]imidazole-7-carboximidamide] |
| 1010 | C[C@@H]1CN(CCNc2nc3nccc(/C(=N/O)Nc4ccc(F)c(Cl)c4)c3[nH]2)C[C@H](C)O1 [Example 478, N-(3-chloro-4-fluorophenyl)-2-((2-((2S,6R)-2,6-dimethylmorpholino)ethyl)amino)-N′-hydroxy-1H-imidazo[4,5-b]pyridine-7-carboximidamide] |
| 2020 | CN1CCCCC1CCNc1nc2c(F)c(F)cc(/C(=N/O)Nc3ccc(F)c(Cl)c3)c2[nH]1 (stereo not shown) [Example 355, N-(3-chloro-4-fluorophenyl)-4,5-difluoro-N′-hydroxy-2-((2-(1-methylpiperidin-2-yl)ethyl)amino)-1H-benzo[d]imidazole-7-carboximidamide] |
| 3030 | CN(C)CC(C)(C)CNc1nc2c(F)ccc(/C(=N/O)Nc3ccc(F)c(Cl)c3)c2[nH]1 [Example 381, N-(3-chloro-4-fluorophenyl)-2-((3-(dimethylamino)-2,2-dimethylpropyl)amino)-4-fluoro-N′-hydroxy-1H-benzo[d]imidazole-7-carboximidamide] |
| 561 | O/N=C(\Nc1ccc(F)c(Cl)c1)c1ccnc2nc(NCCNC3CC3)[nH]c12 [Example 402, N-(3-chloro-4-fluorophenyl)-2-((2-(cyclopropylamino)ethyl)amino)-N′-hydroxy-1H-imidazo[4,5-b]pyridine-7-carboximidamide] |
| 8790 | Cn1nccc1CNc1nc2nccc(/C(=N/O)Nc3ccc(F)c(Cl)c3)c2[nH]1 [Example 358, N-(3-chloro-4-fluorophenyl)-N′-hydroxy-2-(((1-methyl-1H-pyrazol-5-yl)methyl)amino)-1H-imidazo[4,5-b]pyridine-7-carboximidamide] |
| 882 | O/N=C(\Nc1ccc(F)c(Cl)c1)c1cc(F)c(F)c2nc(NCCCN3CCOCC3)[nH]c12 [Example 433, N-(3-chloro-4-fluorophenyl)-4,5-difluoro-N′-hydroxy-2-((3-morpholinopropyl)amino)-1H-benzo[d]imidazole-7-carboximidamide] |
| 644 | Nc1nc2cc(F)cc(/C(=N/O)Nc3cccc(Cl)c3)c2[nH]1 [Example 371, 2-amino-N-(3-chlorophenyl)-5-fluoro-N′-hydroxy-1H-benzo[d]imidazole-7-carboximidamide] |
| 468 | CCN(CC)[C@@H]1COC[C@H]1Nc1nc2c(F)c(F)cc(/C(=N/O)Nc3ccc(F)c(Cl)c3)c2[nH]1 [Example 476, N-(3-chloro-4-fluorophenyl)-2-(((3S,4S)-4-(diethylamino)tetrahydrofuran-3-yl)amino)-4,5-difluoro-N′-hydroxy-1H-benzo[d]imidazole-7-carboximidamide] |

Source: patent US9951065B2 (Gilead Sciences, Inc., priority 2015, dated 2018)
